Values of other authors, collected in patent US20100137787A1, “Delivery devices for modulating inflammation” (Searete LLC, a limited liability corporation of the State …, priority 2008, published 2010).

How the values were obtained:
[1] = target: Toll-like receptor 4 (Homo sapiens, UniProt O00206)
[2] = single agent, infused at 400 mg over one hour
[3] = system: aldehyde dehydrogenase

Chain of Toll-like receptor 4 (O00206 24-839, species assumed): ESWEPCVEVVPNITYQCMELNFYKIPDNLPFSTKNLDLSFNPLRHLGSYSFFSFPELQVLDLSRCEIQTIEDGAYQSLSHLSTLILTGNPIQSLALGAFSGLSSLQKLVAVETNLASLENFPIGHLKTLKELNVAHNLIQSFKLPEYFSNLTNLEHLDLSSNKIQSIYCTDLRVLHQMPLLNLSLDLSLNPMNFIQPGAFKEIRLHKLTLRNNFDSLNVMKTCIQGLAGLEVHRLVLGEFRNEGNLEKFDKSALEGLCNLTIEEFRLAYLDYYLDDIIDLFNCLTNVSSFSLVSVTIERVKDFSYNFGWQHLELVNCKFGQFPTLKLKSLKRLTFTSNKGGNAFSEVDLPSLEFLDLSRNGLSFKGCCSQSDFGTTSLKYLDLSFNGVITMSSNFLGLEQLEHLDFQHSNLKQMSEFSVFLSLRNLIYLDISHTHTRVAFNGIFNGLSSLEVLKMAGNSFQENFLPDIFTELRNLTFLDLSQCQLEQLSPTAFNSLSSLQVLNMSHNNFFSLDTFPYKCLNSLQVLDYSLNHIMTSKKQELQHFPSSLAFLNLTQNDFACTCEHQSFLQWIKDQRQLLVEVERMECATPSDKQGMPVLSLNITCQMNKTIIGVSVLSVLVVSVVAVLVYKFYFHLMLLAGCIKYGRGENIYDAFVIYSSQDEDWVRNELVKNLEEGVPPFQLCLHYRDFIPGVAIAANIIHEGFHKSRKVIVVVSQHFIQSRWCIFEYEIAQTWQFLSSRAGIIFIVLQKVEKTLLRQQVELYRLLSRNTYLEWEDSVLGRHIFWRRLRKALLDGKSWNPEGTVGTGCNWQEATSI

## Cl.Cl.Nc1ccccc1Oc1ccc2c(N)nsc2c1 [Example M62812, 3-amino-6-(2-aminophenoxy)-1,2-benzisothiazole dihydrochloride]
[1]
  inhibitor of Toll-like receptor 4: inhibitor of Toll-like receptor 4

## CCN(CC)CCCC(C)Nc1ccnc2cc(Cl)ccc12.O=P(O)(O)O.O=P(O)(O)O (stereo not shown) [chloroquine phosphate, 7-chloro-4-[[4-(diethylamino)-1-methylbutyl]amino]quinoline phosphate (1:2)]
[2]
  tolerability of infusion: without complication

## CCN(CC)C(=S)SSC(=S)N(CC)CC [disulfiram, 1-(diethylthiocarbamoyldisulfanyl)-N,N-diethyl-methanethioamide]
[3]
  inhibition of aldehyde dehydrogenase: inhibits
  toxicity accompanying aldehyde dehydrogenase inhibition: without toxicity
